Source: US7927634B2, “Compositions and methods for treating angiogenesis-related diseases, wounds and cosmetic use of components of Angelica sinensis, and methods of preparation thereof” (Sunny Biodiscovery, Inc., priority 2004, dated 2011)

Assays:
[1] = tested on: full thickness wounds in human skin graft on SCID mice; experiment: Wound closure in human skin/SCID mouse chimera model; type: in vivo, human skin grafted on SCID mice; settings: closed/total animals, ointment every two days, SBD.4 (HPLC-purified) in 2% CMC, becaplermin as Regranex
Description: Human skin graft in severe combined immunodeficient (SCID) mice is a powerful model for evaluating the effect of wound-healing drug-candidates on full-thickness wounds (Juhasz et al., 1993). The wound model in human skin/SCID chimera features normal migration of neutrophils and macrophages to the wound bed, as well as normal expression of growth factors associated with wound-healing, and therefore provides a good approximation of human dermal wound-healing process (Matsumoto et al., 1997). The disadvantage of this model is that it is delicate to handle and time-consuming. The donor skin must be immediately placed on ice and taken to the lab, where a 10-hour grafting procedure follows. We used surgical waste skin obtained under informed consent from a patient undergoing abdominoplasty.
Skin was defatted (if it is not well defatted, the remaining adipose tissue easily undergoes necrosis, which interferes with graft taking. But on the other side, removing the underlying fat tissue too slowly or too zealously can also damage the skin and compromise the graft), and grafted (2.5×2.5 cm) on 15 SCID mice (Charles River Labs), using 10-12 stitches per graft. Here, the challenge is to suture the thick human skin with the much thinner rodent tissue.
After 6 weeks, when the graft anastomosed with the murine skin 8 mm (diameter) full thickness wounds were excised in the human skin. Mice received treatment (ointment every two days) of either becaplermin (Regranex, positive control), 2% carboxymethylcellulose (CMC, negative control) or SBD.4 in 2% CMC on the day of wounding and every second day thereafter. Initial wound closure (defined by the coverage of the base of the wound with bridging granular tissue and new epithelium) was assessed every 3 days.

[2] = tested on: full thickness excisional wounds in genetically diabetic mice; experiment: Wound closure in genetically diabetic mice; type: in vivo, mouse; settings: for Becaplermin (% closure): median, becaplermin 5 ug/wound in CMC gel, n = 6; for Stimulation by becaplermin relative to Control (control = 1): ratio of median closure, becaplermin 5 ug/wound
Description: We have chosen to use the genetically diabetic mice (13 week old female BKS Cg-m +/+ Lepr(db), stock # 642, Jackson Labs) because it is an optimal model reflecting the impaired wound healing in a segment of the population particularly vulnerable to chronic wounds—the diabetic patients. This genetically diabetic mouse model is well established as documented by over 50 publications (for example see Tsuboi et al., 1992). Many companies have also used it as a standard pre-clinical model, including Johnson & Johnson, which included it in the pre-clinical data package submitted to FDA as part of their IND application for becaplermin. […]
Twelve mice were divided in 2 groups and 8 mm (diameter) full thickness excisional wounds were performed under anesthesia on each side of the animal with a punch biopsy tool and covered by sterile gauze (occlusive dressings were not used as they considerably delay wound healing, according to the experience of the Principal Inventor and to the published reports (Lasa et al., 1993). The number of animals per group was based on the previous publications with this model; Jacobi et al., 2002). In Group 1 (the experimental treatment group), one wound on each animal was treated by 50 ul of “high” concentration of SBD.4 (10 mg per wound) and the other one by 50 ul of “low” concentration of SBD.4 (2 mg per wound). In Group 2 (negative control), both wounds were treated by PBS (phosphate buffered saline). Treatments were applied on the first day and every second day thereafter. Wound surface were measured every second day. Wound closure was determined by the following formula: percent closure={(area on day 0−open area)/area on day 0}×100. Wounds were considered closed if moist granulation tissue was no longer apparent, and the wound appeared covered with new epithelium.
Twelve mice were divided in two groups and two wounds per mouse were effectuated as in Example 5. In order to exclude the possibility of mouse-to-mouse variability in wound healing, in this experiment every mouse was treated by the test sample on one wound and by PBS (negative control) on another wound. Thus, one group of 6 mice was treated with 50 ul of SBD.4 (2 mg/wound) on one wound, and by 50 ul of PBS on the other wound, while the second group of 6 mice was treated with becaplermin (positive control; 5 ug in 50 ul CMC—carboxymethylcellulose—gel) on one and PBS on another wound. The concentration of becaplermin was based on the dose used by Johnson & Johnson in their pre-clinical studies (2) and on published studies with PDGF-B, in the db/db model (Greenhalgh et al., 1990).
Treatments were applied on the first day and every second day thereafter. Wound surface were measured every second day. Wound closure for each wound was determined by the formula: percent closure={(area on day 0−open area)/area on day 0}×100. Wounds were considered closed if moist granulation tissue was no longer apparent, and the wound appeared covered with new epithelium. The dynamics of wound closure for the 2 groups is plotted on FIG. 6 (means) and Table II (medians).

[3] = tested on: bovine endothelial cells; experiment: Tridimensional tube formation assay, in vitro; type: cell-based; settings: bFGF positive control, 15 ng/ml or 10 ng/ml; 2-5 weeks; FIG. 3C
Method: FIG. 3. Tridimensional tube formation assay, in vitro. A: Capillary endothelial cells form a monolayer in the absence of a remodeling stimulus. B: SBD.4 (5 μg/ml, purified by HPLC) induces remodeling of the monolayer that culminates in a tridimensional network of capillary structures. […]
In this model, capillary-like structures are induced by plating bovine endothelial cells (about 8000 cells per well) in a 96 well tissue culture-treated plate (Costar) in DMEM supplemented with 5% calf serum (Hyclone, Logan, Utah), with or without an endothelial cell stimulatory growth factor. […] Cells grown without such factor form a monolayer (FIG. 3A).

Becaplermin: becaplermin (Regranex, Johnson & Johnson), positive control for wound healing
# animals showing initial wound closure ([1]; Day 3): 0/5 | # animals showing initial wound closure ([1]; Day 6): 1/5 | # animals showing initial wound closure ([1]; Day 9): 2/4 | # animals showing initial wound closure ([1]; Day 12): 4/4 | # animals showing initial wound closure ([1]; Day 16): 4/4 | wound closure versus PBS ([2]; Example 6, becaplermin 5 ug in 50 ul CMC gel per wound, FIG. 6 means, one-way ANOVA): not meaningfully different from the control | Becaplermin (% closure) ([2]; Example 6, day 1): 0.0% | Becaplermin (% closure) ([2]; Example 6, day 3): 1.7% | Becaplermin (% closure) ([2]; Example 6, day 5): 11.9% | Becaplermin (% closure) ([2]; Example 6, day 7): 41.2% | Becaplermin (% closure) ([2]; Example 6, day 9): 65.8% | Becaplermin (% closure) ([2]; Example 6, day 11): 86.7% | Stimulation by becaplermin relative to Control (control = 1) ([2]; day 3): 1.1 | Stimulation by becaplermin relative to Control (control = 1) ([2]; day 5): 0.4 | Stimulation by becaplermin relative to Control (control = 1) ([2]; day 7): 1.1 | Stimulation by becaplermin relative to Control (control = 1) ([2]; day 9): 1.3 | Stimulation by becaplermin relative to Control (control = 1) ([2]; day 11): 1.3

bFGF: basic fibroblast growth factor, potent angiogenesis stimulator used as positive control
induction of capillary-like structures (remodeling response) [3]: form capillary-like structures
